Data on six compounds can be found in US20250230215A1, “IMMUNE CELLS EXPRESSING GLUCOSE TRANSPORTER 5 (GLUT5) AND COMPOSITIONS AND METHODS INCLUDING THE SAME” (Memorial Sloan-Kettering Cancer Center, priority 2021, published 2025).

Converted amounts (≈) assume the structure as drawn. A value given as a limit tells only on which side of the number the result lay.

Data set [1] deals with red blood cell pyruvate kinase. Conditions: over a broad range of PKLR genotypes; cited from earlier work.
The target in data set [2] is PKM2 (Homo sapiens, UniProt P14618). The settings on record: PKM2 activation; cited from earlier work.
Sequence of PKM2 (P14618 whole entry): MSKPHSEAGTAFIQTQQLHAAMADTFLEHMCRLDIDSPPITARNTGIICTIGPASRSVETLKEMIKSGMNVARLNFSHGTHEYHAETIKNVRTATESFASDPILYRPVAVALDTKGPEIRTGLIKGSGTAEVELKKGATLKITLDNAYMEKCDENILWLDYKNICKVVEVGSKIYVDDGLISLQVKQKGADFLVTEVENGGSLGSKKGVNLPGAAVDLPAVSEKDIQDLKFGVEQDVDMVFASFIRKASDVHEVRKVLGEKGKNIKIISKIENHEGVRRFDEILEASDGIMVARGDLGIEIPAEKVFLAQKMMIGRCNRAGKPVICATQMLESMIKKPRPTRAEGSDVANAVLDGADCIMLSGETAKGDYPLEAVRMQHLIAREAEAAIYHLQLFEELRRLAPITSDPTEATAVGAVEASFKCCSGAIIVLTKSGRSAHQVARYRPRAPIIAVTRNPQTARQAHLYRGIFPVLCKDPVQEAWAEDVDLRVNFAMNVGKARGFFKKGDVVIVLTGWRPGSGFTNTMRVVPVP
Data set [3] has as its target T1, KHK (Homo sapiens, UniProt P50053).
T1 construct: endogenous in cells; host or cells: HepG2 cells
T1 sequence (P50053 1-298): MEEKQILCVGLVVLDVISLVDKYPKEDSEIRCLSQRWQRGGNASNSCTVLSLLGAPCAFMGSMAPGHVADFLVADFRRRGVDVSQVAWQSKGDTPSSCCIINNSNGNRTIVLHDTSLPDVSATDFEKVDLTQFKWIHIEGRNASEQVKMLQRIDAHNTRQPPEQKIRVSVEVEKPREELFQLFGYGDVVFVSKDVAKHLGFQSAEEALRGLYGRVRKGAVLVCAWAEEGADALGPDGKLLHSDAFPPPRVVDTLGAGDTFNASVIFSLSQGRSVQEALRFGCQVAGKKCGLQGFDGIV
Briefly: 13C NMR of [2-13C]F1P in HepG2 cell extract with KHKi treatment. The format is cell-based. Conditions: treatment at 4 hr in vitro. The source says: FIGS. 11A-11C provide fructose converted to fructose-1-phosphate (F1P) and later to lactate in vivo measured in transformed hepatocytes (HepG2 cells) using [2-^13C] fructose. FIG. 11A provides ^13C NMR spectra of media containing [2-^13C] fructose exposed to HepG2 cells. FIG. 11B provides a quantification of fructose consumption by HepG2.
Translation of novel hyperpolarized probes into in vivo animal models represents a great technical advance in the exploration of the modulate metabolism induced by GLUT5-OV. Using the optimized probe formulation for HP fructose, the metabolic conversion of fructose is explored in vivo in the liver of wild type B6 mice, as previously shown. […] [2-^13C]F1P resonates downfield of the C2 pyranose resonance; in Example 1, this conversion was measured in transformed hepatocytes (HepG2 cells, FIG. 11) using [2-^13C] fructose. When further converted, C2 lactate is generated (resonating at 70 ppm) from fructose and this has been detected previously in vivo derived from HP glucose (Rodrigues et al. Nat Med 20, 93-97 (2014)) and pyruvate (Park et al. Magn Reson Med 75, 973-984 (2016)). All imaging studies are conducted under IACUC-approved protocol #13-12-019. Briefly, mice are imaged using a 3T Bruker MRI equipped with a dual tune ^1H/^13C volume coil. […] This is then extracted and labeled metabolites are measured by LC/MS and NMR. […]

A short description of data set [4]: Pharmacokinetic analysis of the KHKi in vivo. The arrangement: species or system mice. Conditions: mouse.
Data set [5] is described as follows: Blood, tumor and liver fructose after IP injection of fructose in B16 tumor bearing mice. The format is in vivo. The method, then:
Further this supports that HP fructose reaches the tumor and provides a platform for imaging.
In order to determine the effect of fructose addition into GLUT5-OV T cells in vivo, the assay is optimized for delivering fructose into the tumor microenvironment. Specifically, three methods are tested, including: (i) intraperitoneal (IP) and (ii) intravenous (IV) injections of fructose, and (iii) water bottle with high-fructose corn syrup (HFCS). IP and IV injections (4 g/kg) are conducted daily and 25% HFCS in water is provided for three weeks; twice a week during this time the fructose level in circulating blood is measured and an endpoint tumor fructose measurement is taken. A B16 melanoma mouse model is utilized. Briefly, B16 cells (2×10^5) are engrafted subcutaneously into C57BL/6 mice and assayed on Day 7 post-tumor-engraftment. In a second cohort of mice, with the same conditions, co-administration of the KHKi^53 used in Example 3 is performed to block the uptake of the liver and small intestine (the predominant sites of fructose uptake and subsequent phosphorylation by KHK). As shown in Example 1, a single IP injection of fructose was piloted and both the tumors and liver were extracted after 1 hr (FIG. 12). […] Given this PK data, this dose of KHKi is explored using multiple routes of delivery. Specially, a dose of 10 mg/kg was used and administered IP at the same time as the fructose delivery. Fructose concentration is measured in the circulating blood as well as the endpoint tumor with all 3 delivery methods (n=10 mice per group, total of 80 mice) utilizing a standard kit assay. See Goncalves et al. Science 363, 1345-1349 (2019). Taken together, these experiments provide the necessary data to determine which fructose delivery method is best for the remaining experiments.
Results, potential challenges and alternative solutions: In some embodiments, high dose injections of fructose allows for a transient but substantial increase in blood as well as tumor fructose levels (>2 mM). It was found by Applicant that with a single IP injection of fructose the blood concentration can be raised to >10 mM and tumor concentration can be raised to >2 mM. The dosing schedule relative to T-cell action is further optimized. It is possible that the fructose levels of tumors can not be further elevated in vivo due to the action of the liver and gluconeogenesis. […] This is readily in the range of detection for HP MRI. It is possible that HP lactate can not be detected in tumors from fructose due to the cellularity. At the minimum, however, HP F6P can be detected, which was previously detected in tumors that overexpress GLUT5; this informs on the degree of fructose metabolism into glycolysis. […]

The conditions of data set [6]: PBS, pH 7.4; cited from earlier work.
Data set [7] is described as follows: Hyperpolarized lifetime and polarization of HP fructose probes. Type of data set: physicochemical. The source says: FIG. 9A provides the mechanism for transport by GLUT5 and the first step of metabolism of fructose to fructofuranose-6-phosphate by hexokinase. FIG. 9B provides a T2-weighted image of a transgenic model of prostate cancer (TRAMP) mouse with tumor only on the right side of the prostate. Metabolic images of total hyperpolarized [2-^13C] fructose resonances (FIG. 9C) and the composite 0-fructofuranose-6-phosphate and β-fructofuranose (FIG. 9D) are shown overlaid on the T2 weighted image. Resonances corresponding to the β-fructopyranose and composite p-fructofuranose-6-phosphate and p-fructofuranose are shown in the corresponding spectral array (FIG. 9E). FIGS. 9A-9E adapted from Keshari et al. J Am Chem Soc. 2009 Dec. 9; 131(48):17591-6. […] An unassigned, spurious, low signal-to-noise resonance appears at 115 ppm. FIG. 9F provides a synthetic scheme for U-^2H-[2-^13C] fructose. The C2 is annotated by an C. FIG. 9G provides representative dynamic spectra of HP [2-^13C] fructose dissolved in D2O and HP U-^2H-[2-^13C] fructose dissolved in D20. Both solutions were approximately 30 mM and spectra acquired using 5° flip angle every 3 s.
Enhancement of hyperpolarized lifetimes using D2O solvation and application to HP fructose: In previous experiments, the necessary strategies and combined methods to develop not only novel probes for HP MRI but also bolus tracing experiments to confirm biochemistry in vivo. See Salamanca-Cardona et al. Cell Metab 26, 830-841 e833 (2017). While many molecular strategies have been developed for HP MRI, they generally suffer from short lifetimes (≤10 s) making flux through pathways of interest difficult to visualize in vivo. […] See Keshari et al. J Am Chem Soc 131, 17591-17596 (2009). In recent work, It was shown by the Applicant that utilization of rapid exchange between H2O and D2O can dramatically increase the lifetimes of the HP probes by greatly reducing dipolar relaxation. See Cho et al. J Magn Reson 295, 57-62 (2018). As such, a synthesis was developed for [2-^13C,U-^2H7] fructose at gram scale (FIG. 9F) as well as a preparation to hyperpolarize it. […]

The mark [8] stands for this setting: single IP injection of fructose.

Turning to `O=C(c1ccc(NS(=O)(=O)c2cccc3cccnc23)cc1)N1CCN(CC2CC2)CC1` [AG 348], the “effect on red blood cell pyruvate kinase” value in data set [1] was “increases enzymatic activity, protein stability, and ATP levels”.

Turning to `Nc1cccc(S(=O)(=O)N2CCCN(S(=O)(=O)c3ccc4c(c3)OCCO4)CC2)c1` [DASA-58], the AC90 in data set [2] is given as 680 nM.

Consider `N#Cc1c(C(F)(F)F)cc(N2CCN(CCO)CC2)nc1N1CCCC(CO)C1` (centres unmarked) [KHKi, 6-(4-(2-Hydroxyethyl)piperazin-1-yl)-2-(3-(hydroxymethyl)-piperidin-1-yl)-4-(trifluoromethyl)nicotinonitrile], for which the “change in F1P” value in data set [3] is recorded as “decrease in F1P”. Also, the maximum concentration (Cmax) (in general, the peak of the concentration-time curve) in data set [4] (10 mg/kg, approximate conversion) was around 1 µM; in data set [4] (KHKi 10 mg/kg) it was 475 ng/mL. Moreover, the half-life (usually the time in which the quantity being followed falls by half) in data set [4] (KHKi 10 mg/kg) is 2 h. Moreover, the “extension of blood half-life of fructose” value in data set [5] (first attempt with the KHKi) is recorded as 50%. Further, the “tumor fructose with KHKi” value in data set [5] (single dose of KHKi with single IP injection of fructose, tumors extracted after 1 hr) is reported as “further enhanced”.

As to `Cn1c2cc([S+](C)[O-])sc2c2cnn(Cc3cccc(N)c3)c(=O)c21` (centres unmarked) [TEPP-46], the aqueous solubility (usually the dissolved amount per volume that the medium holds) in data set [6] is 79.5 µM (≈ 29.6 µg/mL).

As for `[2H]C([2H])(O)[13C](=O)[C@@]([2H])(O)[C@]([2H])(O)[C@]([2H])(O)C([2H])([2H])O` [[2-^13C,U-^2H7] fructose], in data set [7], the achieved polarization result is “greater than 10%”. The same compound displayed a hyperpolarized lifetime in data set [7] (D2O solvation) of 1.5 min. In addition, in data set [7] (versus HP [2-13C] fructose), the “lifetime relative to previously shown” value worked out at 6 times.

As for `O=C(CO)[C@@H](O)[C@H](O)[C@H](O)CO` [fructose], in data set [5] (setting [8]), the “blood concentration of fructose” value is above 10000 µM and the “tumor concentration of fructose” value is reported as above 2 mM.
